Measurements as given in US9765018B2, “IDO inhibitors” (BRISTOL-MYERS SQUIBB COMPANY, priority 2013, dated 2017).

Assays:
[1] = target: T1, IDO (Homo sapiens (Human), UniProt P14902); experiment: Kynurenine assay in IFN-γ-stimulated Hela cells; format: cell-based; conditions: 20 h, read-out: Hela Kyurenine (IC50)
Procedure, shortened: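 Kynurenine in supernatant is read at 490 nm after Ehrlich reagent (10 min RT), following TCA stop and 30 min at 50° C hydrolysis. Before that, Hela cells in phenol red-free RPMI/10% FBS were co-treated 20 h at 37° C with 100 ng/mL IFN-γ and compound (30 μM top, 3-fold series to 1.5 nM).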

[2] = target: T1, IDO; experiment: LLE_IDO_ABS_DR (IDO assay, method not described)

T1 sequence (P14902 whole entry): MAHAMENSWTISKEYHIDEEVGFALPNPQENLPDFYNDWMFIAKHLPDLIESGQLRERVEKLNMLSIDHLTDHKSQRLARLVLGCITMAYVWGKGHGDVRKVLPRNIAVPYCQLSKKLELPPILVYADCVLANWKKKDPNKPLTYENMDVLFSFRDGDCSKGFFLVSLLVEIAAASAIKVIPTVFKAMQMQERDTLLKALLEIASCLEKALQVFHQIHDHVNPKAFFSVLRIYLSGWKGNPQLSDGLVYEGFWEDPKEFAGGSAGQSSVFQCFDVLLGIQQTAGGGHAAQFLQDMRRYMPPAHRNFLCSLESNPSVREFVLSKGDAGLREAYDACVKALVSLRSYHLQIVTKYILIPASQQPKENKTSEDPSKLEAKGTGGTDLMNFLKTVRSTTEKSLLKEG

Compound	IC50 [1] [µM]	IC50 [2] [µM]
COc1ccc(-c2ccc(O[C@@H]3CCCC[C@H]3C)c(NC(=O)Nc3ccccc3Cl)c2)cc1C(=O)O (relative stereo) [Example 132, 3′-(3-(2-chlorophenyl)ureido)-4-methoxy-4′-((trans)-2-methylcyclohexyloxy)biphenyl-3-carboxylic acid]	0.99	1.46
COc1ccc(-c2ccc(O[C@@H]3CCCC[C@H]3C)c(NC(=O)Nc3cccc(C)c3)c2)cc1C(=O)O (relative stereo) [Example 138, 4-methoxy-4′-((trans)-2-methylcyclohexyloxy)-3′-(3-m-tolylureido)biphenyl-3-carboxylic acid]	0.39	2.34
COc1ccc(-c2cnc(Oc3cccc4c3CCCC4)c(NC(=O)Nc3ccccc3Cl)c2C)cc1C(=O)O [Example 3, 5-(5-(3-(2-Chlorophenyl)ureido)-4-methyl-6-(5,6,7,8-tetrahydronaphthalen-1-yloxy)pyridin-3-yl)-2-methoxybenzoic acid]	3.38	4.81
COc1ccc(-c2ccc(Oc3ccccc3C(C)(C)C)c(NC(=O)Nc3ccc(C(F)(F)F)cc3)c2)cc1C(=O)O [Example 43, 4′-(2-tert-butylphenoxy)-4-methoxy-3′-(3-(4-(trifluoromethyl)phenyl)ureido)biphenyl-3-carboxylic acid]	0.44	10
COc1ccc(-c2ccc(Oc3ccccc3Cl)c(NC(=O)Nc3ccccc3Cl)c2)cc1C(=O)O [Example 49, 4′-(2-chlorophenoxy)-3′-(3-(2-chlorophenyl)ureido)-4-methoxybiphenyl-3-carboxylic acid]	0.59	2.63
COc1ccc(-c2ccc(Oc3c(C)cccc3C(C)(C)C)c(NC(=O)Nc3ccccc3Cl)c2)cc1C(=O)O [Example 54, 4′-(2-tert-butyl-6-methylphenoxy)-3′-(3-(2-chlorophenyl)ureido)-4-methoxybiphenyl-3-carboxylic acid]	0.51	2.54
CCc1ccccc1Oc1ccc(-c2ccc(OC)c(C(=O)O)c2)cc1NC(=O)Nc1cccc(Cl)c1 [Example 58, 3′-(3-(3-chlorophenyl)ureido)-4′-(2-ethylphenoxy)-4-methoxybiphenyl-3-carboxylic acid]	0.24	0.77
COc1ccc(-c2ccc(Oc3c(C)cccc3C(C)(C)C)c(NC(=O)Nc3cccc(C)c3)c2)cc1C(=O)O [Example 60, 4′-(2-tert-butyl-6-methylphenoxy)-4-methoxy-3′-(3-m-tolylureido)biphenyl-3-carboxylic acid]	0.31	1.15
COc1ccc(-c2ccc(Oc3ccccc3C(C)C)c(NC(=O)Nc3ccccc3C)c2)cc1C(=O)O [Example 64, 4′-(2-isopropylphenoxy)-4-methoxy-3′-(3-o-tolylureido)biphenyl-3-carboxylic acid]	0.18	0.64
COc1ccc(-c2ccc(Oc3ccccc3C(C)C)c(NC(=O)Nc3cccc(C)c3)c2)cc1C(=O)O [Example 65, 4′-(2-isopropylphenoxy)-4-methoxy-3′-(3-m-tolylureido)biphenyl-3-carboxylic acid]	0.2	0.63
COc1ccc(-c2ccc(Oc3ccccc3C(C)(C)C)c(NC(=O)Nc3ccc(OC(F)(F)F)cc3)c2)cc1C(=O)O [Example 66, 4′-(2-tert-butylphenoxy)-4-methoxy-3′-(3-(4-(trifluoromethoxy)phenyl)ureido)biphenyl-3-carboxylic acid]	0.82	1.59
CCCc1ccccc1Oc1ccc(-c2ccc(OC)c(C(=O)O)c2)cc1NC(=O)Nc1cccc(C)c1 [Example 76, 4-methoxy-4′-(2-propylphenoxy)-3′-(3-m-tolylureido)biphenyl-3-carboxylic acid]	0.6	2.04
COc1ccccc1NC(=O)Nc1cc(-c2ccc(OC)c(C(=O)O)c2)ccc1Oc1ccccc1C(C)(C)C [Example 83, 4′-(2-(tert-butyl)phenoxy)-4-methoxy-3′-(3-(2-methoxyphenyl)ureido)-[1,1′-biphenyl]-3-carboxylic acid]	0.21	1.19
COc1ccc(-c2ccc(Oc3ccccc3C(C)(C)C)c(NC(=O)Nc3ccc(C)cc3C)c2)cc1C(=O)O [Example 94, 4′-(2-(tert-butyl)phenoxy)-3′-(3-(2,4-dimethylphenyl)ureido)-4-methoxy-[1,1′-biphenyl]-3-carboxylic acid]	0.17	3.06
COc1ccc(-c2ccc(Oc3cccc(C(C)(C)C)c3)c(NC(=O)Nc3ccccc3Cl)c2)cc1C(=O)O [Example 110, 4′-(3-tert-butylphenoxy)-3′-(3-(2-chlorophenyl)ureido)-4-methoxybiphenyl-3-carboxylic acid]	0.13	2.05
COc1ccc(-c2ccc(Oc3cccc(C(C)(C)C)c3)c(NC(=O)Nc3cccc(C)c3)c2)cc1C(=O)O [Example 112, 4′-(3-tert-butylphenoxy)-4-methoxy-3′-(3-m-tolylureido)biphenyl-3-carboxylic acid]	0.37	1.05
CCCNC(=O)Nc1cc(-c2ccc(OC)c(C(=O)O)c2)ccc1Oc1cccc2c1CCCC2 [Example 118, 4-methoxy-3′-(3-propylureido)-4′-(5,6,7,8-tetrahydronaphthalen-1-yloxy)biphenyl-3-carboxylic acid]	0.92	1.06
O=C(Nc1ccc(Cl)cc1)Nc1cc(-c2ccccc2-c2nnn[nH]2)cc(CC2CC2)c1OCCC(F)(F)F [Example 314, 1-(4-chlorophenyl)-3-(5-(cyclopropylmethyl)-2′-(1H-tetrazol-5-yl)-4-(3,3,3-trifluoropropoxy)-[1,1′-biphenyl]-3-yl)urea]		2.36
Cc1ccc(NC(=O)Nc2cc(-c3ccccc3-c3nnn[nH]3)cc(CC3CC3)c2OCC2CC2)cc1 [Example 324]		1.07
Cc1cccc(NC(=O)Nc2cc(-c3ccccc3-c3nnn[nH]3)cc(CC3CC3)c2OCC2CC2)c1 [Example 325]		2.97
O=C(Nc1ccc(F)cc1F)Nc1cc(-c2ccccc2-c2nnn[nH]2)cc(CC2CC2)c1Oc1ccccc1 [Example 329]		1.66

Compounds with a lower IC50 [2], results first:

IC50 [1] [µM]	IC50 [2] [µM]	Compound
0.37	0.55	CCCc1ccccc1Oc1ccc(-c2ccc(OC)c(C(=O)O)c2)cc1NC(=O)Nc1ccccc1C [Example 75, 4-methoxy-4′-(2-propylphenoxy)-3′-(3-o-tolylureido)biphenyl-3-carboxylic acid]
0.14	0.53	COc1ccc(-c2ccc(Oc3ccccc3C(C)C)c(NC(=O)Nc3ccccc3Cl)c2)cc1C(=O)O [Example 62, 3′-(3-(2-chlorophenyl)ureido)-4′-(2-isopropylphenoxy)-4-methoxybiphenyl-3-carboxylic acid]
0.4	0.52	CCCc1ccccc1Oc1ccc(-c2ccc(OC)c(C(=O)O)c2)cc1NC(=O)Nc1ccccc1Cl [Example 74, 3′-(3-(2-chlorophenyl)ureido)-4-methoxy-4′-(2-propylphenoxy)biphenyl-3-carboxylic acid]
	0.46	Cc1ccc(NC(=O)Nc2cc(-c3ccccc3-c3nnn[nH]3)cc(CC3CC3)c2Oc2ccccc2)cc1 [Example 322]
0.18	0.43	COc1ccc(-c2ccc(Oc3cccc(C(C)(C)C)c3)c(NC(=O)Nc3ccccc3C)c2)cc1C(=O)O [Example 111, 4′-(3-tert-butylphenoxy)-4-methoxy-3′-(3-o-tolylureido)biphenyl-3-carboxylic acid]
0.15	0.39	COc1ccc(-c2ccc(Oc3ccccc3C(C)(C)C)c(NC(=O)Nc3cccc(C)c3)c2)cc1C(=O)O [Example 45, 4′-(2-tert-butylphenoxy)-4-methoxy-3′-(3-m-tolylureido)biphenyl-3-carboxylic acid]
0.13	0.39	CCc1ccccc1Oc1ccc(-c2ccc(OC)c(C(=O)O)c2)cc1NC(=O)Nc1cccc(C)c1 [Example 57, 4′-(2-ethylphenoxy)-4-methoxy-3′-(3-m-tolylureido)biphenyl-3-carboxylic acid]
0.11	0.39	COc1ccc(-c2ccc(Oc3cccc(C)c3C)c(NC(=O)Nc3ccccc3C)c2)cc1C(=O)O [Example 121, 4′-(2,3-dimethylphenoxy)-4-methoxy-3′-(3-o-tolylureido)biphenyl-3-carboxylic acid]
	0.33	Cc1ccc(NC(=O)Nc2cc(-c3ccccc3-c3nnn[nH]3)cc(CC3CC3)c2OCCC(F)(F)F)cc1 [Example 317]
0.13	0.32	COc1ccc(-c2ccc(Oc3ccccc3C(C)(C)C)c(NC(=O)Nc3cccc(Cl)c3Cl)c2)cc1C(=O)O [Example 81, 4′-(2-(tert-butyl)phenoxy)-3′-(3-(2,3-dichlorophenyl)ureido)-4-methoxy-[1,1′-biphenyl]-3-carboxylic acid]
	0.32	O=C(Nc1ccc(F)cc1F)Nc1cc(-c2ccccc2-c2nnn[nH]2)cc(CC2CC2)c1OCCC(F)(F)F [Example 318]
	0.31	O=C(Nc1ccc(Cl)cc1)Nc1cc(-c2ccccc2-c2nnn[nH]2)cc(CC2CC2)c1OCC1CC1 [Example 327]
	0.22	O=C(Nc1ccc(OC(F)(F)F)cc1)Nc1cc(-c2ccccc2-c2nnn[nH]2)cc(CC2CC2)c1Oc1ccccc1 [Example 320]
	0.2	Cc1ccc(NC(=O)Nc2cc(-c3cc(F)ccc3C(=O)O)ccc2OC(CCC(F)(F)F)c2ccc(Cl)cc2)cc1 (stereo not shown) [Example 311]
	0.13	Cc1cccc(NC(=O)Nc2cc(-c3ccccc3-c3nnn[nH]3)cc(CC3CC3)c2OC2CCOCC2)c1 [Example 326]
	0.13	O=C(Nc1ccc(C2CC2)cc1)Nc1cc(-c2ccccc2-c2nnn[nH]2)cc(CC2CC2)c1OC1CCOCC1 [Example 328]
	0.08	Cc1ccc(NC(=O)Nc2cc(-c3ccccc3-c3nnn[nH]3)ccc2OC(CCC(F)(F)F)c2ccc(Cl)cc2)cc1 (stereo not shown) [Example 312]
	0.08	Cc1cccc(NC(=O)Nc2cc(-c3ccccc3-c3nnn[nH]3)cc(CC3CC3)c2OCCC(F)(F)F)c1 [Example 315]
